Row | SMILES | melting point
1 | CN(C)CCSC(=O)c1c[nH]c(=S)n1C1CCc2c(F)cc(F)cc2C1 (stereo unspecified) | 204 to 206 °C
2 | CCOC(=O)c1cc(Oc2ccc(C(F)(F)F)cc2Cl)ccc1[N+](=O)[O-] | 156 to 160 °C
3 | C=CCc1cc(OC)c(OC)cc1Cc1cnc(N)nc1N | 170 to 171 °C
4 | Nc1nnc(N2CCN(Cc3ccncc3)CC2)[nH]1 | 191 to 193 °C
5 | O[C@@H](CNCCOc1ccc2oc(-c3noc(C(F)(F)F)n3)cc2c1)COc1ccccc1Cl | 112 to 115 °C
6 | Cc1cc(N=C2NCCN2)cc(NS(C)(=O)=O)c1C | 254 to 255 °C
7 | O=C(O)C=Cc1cn(Cc2cc(OCc3ccccc3)cc(OCc3ccccc3)c2)cc1-c1ccccc1 | 182 to 183 °C
8 | CCCCCCCCCCCCCCCCCCOC(=O)ON1C(=O)c2ccccc2C1=O | 83 to 89 °C
9 | COc1cc2c(cc1OC)CCN(C(=O)N(C)O)CC2 | 95 to 96 °C
10 | C#CCOC(=O)Oc1ccc2ccc(OC(=O)OCC#C)cc2c1 | 94 to 96 °C
11 | OC1(C2CC2)c2ccccc2OCc2ncccc21 (stereo unspecified) | 210 to 212 °C
12 | O=C1C2CCN(CC2)C1Cc1cccnc1 (stereo unspecified) | 95 °C
13 | Cc1ccc([N+](=O)[O-])c2c1CCCC2=O | 104 to 107 °C
14 | CN(C)c1ccc(-c2cnc3[nH]cc(C(=O)C4(C)CCCCC4)c3n2)cc1 | 272 to 274 °C
15 | CCc1ccccc1NC(Nc1ccccc1CC)Nc1ccccc1CC | 76 to 78 °C
16 | COc1ccc(-c2cc(=O)n(Cc3ccccc3)nc2-c2ccc(OC)c(F)c2)cc1F | 114 to 115 °C
17 | O=c1nc(-c2cccc(CO)n2)sc2ccccc12 | 208 to 209 °C
18 | CC(C)C1=C(C#N)C(c2ccccc2Cl)c2c[nH]nc2N1 (stereo unspecified) | > 250 °C
19 | O=C(Nc1ccc(F)cc1)c1ccccc1-c1cccc(F)c1 | 147 to 148 °C
20 | CCCN(CCC)C1COc2cccc(C(=O)C(C)C)c2C1 (stereo unspecified) | 60 to 62 °C
21 | CN(C)C1CC=C(c2c[nH]c3ccc([N+](=O)[O-])cc23)CC1 (stereo unspecified) | 234 to 236 °C
22 | c1cc(NC2=NCCN2)ccc1Cc1ccc(OC2CCOCC2)cc1 | 169 to 170 °C
23 | NC(=NCCCc1ccccn1)NCCCc1c[nH]cn1 | 85 to 86 °C
24 | CC(C)Nc1cccnc1N1CCN(C(=O)c2ccc(C(=O)NCCN3CCOCC3)cc2)CC1 | 114 to 116 °C

Row | SMILES | melting point
25 | Cc1cccc(-c2nc(C)cc(-c3ccccc3Cl)n2)n1 | 90.8 °C
26 | COc1cc(=O)c2c([nH]c1=O)CC(Cl)C(Cl)C2 (stereo unspecified) | 229 to 230 °C
27 | CC(=O)c1cc2c(s1)C(NC(=O)c1ccc([N+](=O)[O-])cc1)C(O)C(C)(C)O2 (stereo unspecified) | 223 to 225 °C
28 | CCCn1cc(Cc2ccc(C(=O)O)cc2OC)c2cc(CC3CCN(CC)C3=O)ccc21 (stereo unspecified) | 94 to 99 °C
29 | CCCCOc1ccc(CCCOc2nn(CC)cc2CC(=O)O)c(Oc2ccc(C(F)(F)F)cn2)c1 | 81 to 82 °C
30 | Cc1onc(OCC(=O)NCCO[N+](=O)[O-])c1Br | 87 to 88 °C
31 | CC(C)N1CCC(C(C#N)(c2ccccc2)c2ccccc2)C1 (stereo unspecified) | 73 to 74 °C
32 | CCC(C)Nc1nc(Cc2cc(OC)c(OC)c(OC)c2)nc2sc(C#N)c(C)c12 (stereo unspecified) | 134 to 137 °C
33 | CNC(=O)CONC(=O)c1cc(Br)cc(Br)c1NC(=O)c1cc(Br)nn1-c1ncccc1Cl | 220 to 221 °C
34 | CCC(=O)c1c(CC)n(Cc2ccccc2Cl)c2cc(-c3nnn[nH]3)ccc12 | 178 to 181 °C
35 | Brc1cccc2nc3[nH]c4ccccc4nc-3c12 | > 300 °C
36 | Cn1c(=S)c(C(=O)C2=C(O)CCCC2=O)nc2ccccc21 | > 300 °C
37 | Cc1c(N2CCN(C)C(C)C2)c(F)cc2c(=O)c(C(=O)O)cn(C3CC3)c12 (stereo unspecified) | 181 to 183 °C
38 | CCOC(=O)c1cc2cc(N)ccc2[nH]1 | 124 to 125 °C
39 | CNCc1nnc2n1-c1ccc(Cl)cc1C(c1ccccc1F)=CC2 | 170 to 171 °C
40 | C[C@](N)(CO)CCc1ccc2oc(-c3ccc(O)cc3)nc2c1 | 229 to 231 °C
41 | O=C(O)CCSC1c2ccccc2COc2ccc(OCc3ccc4cc(Cl)ccc4n3)cc21 (stereo unspecified) | 178 to 180 °C
42 | CNC(=O)O/N=C(/SC)C(F)(F)F | 83 to 85 °C
43 | O=C1C(Cl)=C(N2CCN(S(=O)(=O)c3ccccc3C(F)(F)F)CC2)C(=O)c2ccccc21 | 122 to 124 °C
44 | CCOC(=O)CCCCSc1nnc(S)s1 | 53 °C
45 | COc1ccc(-c2nc(C(N)=O)cn2-c2ccc(OC)cc2)cc1 | 167 to 169 °C
46 | CCCn1c(=O)c2c(nn3cc(-c4ccccc4)[nH]c23)n(Cc2ccccc2)c1=O | 261 to 262 °C
47 | N#CC1=C(C#N)Sc2nc3cc(C(F)(F)F)ccc3nc2S1 | 197 to 199 °C
48 | CC(C(=O)Nc1ccc(Cl)cc1Cl)N1C(=O)C=CC1=O (stereo unspecified) | 131 °C

Second part, the compound after the results:

Row | melting point | SMILES
49 | 183 to 185 °C | CCCCCc1nc2cc(Cl)c(S(N)(=O)=O)cc2[nH]1
50 | 95 °C | CC(C)C(=O)C(=CN(C)C)c1ccc(Cl)cc1
51 | 142 to 143 °C | COC(=O)[C@@H](CCSC)NC(=O)C[C@H]1O[C@H](c2cccc(OC)c2OC)c2cc(Cl)ccc2N(CC(C)(C)CO)C1=O
52 | 232 to 234 °C | Nc1nc2cc(Cl)c(Cl)cc2nc1Br
53 | 223 to 225 °C | Oc1ccc(Nc2nccc(-c3cccnc3)n2)cc1
54 | 140 to 141 °C | Cc1ccc(-c2c(NS(=O)(=O)c3ccc(C(C)(C)C)cc3)ncnc2OCCOc2ccc(NC(=O)C(C)(C)C)cn2)cc1
55 | 180 to 181 °C | COc1ccc(S(=O)(=O)N2CCc3cccc(-c4cccc(F)c4)c32)cc1
56 | 168 to 169 °C | Cn1cccc1C1=C(Cl)C(=O)c2cccnc2C1=O
57 | 180 to 182 °C | Cc1ccc(C(=O)Cn2c(=NS(=O)(=O)c3ccc(C)cc3)sc3ccccc32)cc1
58 | 180 °C | N#Cc1c(Cl)nc(Cl)nc1N1CCSCC1
59 | 88 to 90 °C | C(=C(c1ccccc1)c1ccccc1)C1CCN(CCCCCCc2cncnc2)CC1
60 | 81 to 83 °C | CCOc1ccc([N+](=O)[O-])cc1I
61 | 118 to 120 °C | OC(c1ccc(Cl)cc1)(c1ccc(Cl)cc1)c1ccns1
62 | 143 °C | Cc1cc(-c2cc(C(F)(F)F)n3ncc(C(=O)Nc4cccc(S(=O)(=O)N5CCN(C)CC5)c4)c3n2)ccc1Cl
63 | 125 to 130 °C | COc1cc(C=S2C=CN=C2N)c([N+](=O)[O-])cc1OC (stereo unspecified)
64 | 244 to 245 °C | Oc1ccc(N2CCN(c3nncc4ccccc34)CC2)cc1
65 | 120 to 122 °C | COC(=O)NC(C)(C(=O)NS(=O)(=O)c1ccc(C)cc1)C(C)C (stereo unspecified)
66 | 123 °C | CC(C)Oc1ccc(O)cc1OCCN1C(=O)c2ccccc2C1=O
67 | 161 to 163 °C | O=C1c2ccc([N+](=O)[O-])cc2S(=O)(=O)N1CSc1ccccc1
68 | > 285 °C | CSc1ccc(-c2nc3[nH]nc(N)c3c(=O)n2-c2ccc(C)cc2)cc1
69 | 68 to 71 °C | CCCc1c[nH]c2cc(CO)ccc12
70 | 190 °C | Cc1cnc2n1N=C(c1ccc(F)cc1)c1cc3c(cc1C2)OCO3
71 | 208 to 209 °C | c1ccc(Nc2nc[nH]c3ncc(-c4ccccc4)c2-3)cc1
72 | 119 to 120 °C | O=C(OCc1ccc(Cl)cc1)C(=C1NCCCS1)[N+](=O)[O-]
73 | 206 to 208 °C | CC1C(=O)NC2=Nc3ccc(OCCCCC(=O)N(CCO)C4CCCCC4)c(Cl)c3CN21 (stereo unspecified)
74 | 235 °C | FC1=CC(c2cccnc2)=CC2CCC(=S)NC12 (stereo unspecified)
75 | 157 to 159 °C | O=C(OCCOc1ccc2ncnn2n1)N1CCN(C(c2ccccc2)c2ccccc2)CC1

Row | melting point | SMILES
76 | 136 to 139 °C | O=C1COc2ccc3c(c2N1)C(=O)CC3
77 | 162 to 163 °C | COc1ccc(S(=O)(=O)N2C(=O)C(OC(=O)Oc3ccccc3)(c3ccccc3Cl)c3cc(Cl)c(OC)cc32)c(OC)c1 (stereo unspecified)
78 | 138 to 139 °C | S=C1NCCSc2ccsc21
79 | 80 to 81 °C | CC(=O)CC1=C(O)CCCC1=O
80 | 186 to 188 °C | O=C1c2ccccc2C(=O)N1OCc1cnn(C(c2ccccc2)(c2ccccc2)c2ccccc2)c1
81 | 45 to 46 °C | CC#CCOc1ccc(S(=O)(=O)NC(COCCBr)C(=O)OC)cc1 (stereo unspecified)
82 | 162 °C | OC1CSC(Oc2cc(-c3ccccn3)cc(F)c2F)C(O)C1O (stereo unspecified)
83 | 121 to 124 °C | COc1ccc(Cc2cc(O)ccc2OC)cn1
84 | 211 to 213 °C | COc1c(N2CC3CCC3(NC(=O)OC(C)(C)C)C2)c(F)cc2c(=O)c(C(=O)O)cn(C3CC3)c12 (stereo unspecified)
85 | 110 to 113 °C | CS(=O)(=O)Nc1ccc(F)c(C(=O)CBr)c1
86 | 230 to 235 °C | N#Cc1cccc2c3c([nH]c12)CCNC3
87 | 77 to 78 °C | CCC1(CCCCCBr)C(=O)Nc2ccccc21 (stereo unspecified)
88 | 103 to 104 °C | COCN1C(C)=C(C(=O)OCOC(=O)C(C)(C)C)C(c2cccc(Cl)c2Cl)C(C(=O)OCOC(=O)C(C)(C)C)=C1C
89 | 234 to 236 °C | CCCCN(NC(=O)c1ccccc1)C(=O)c1ccc(Cl)c(Cl)c1
90 | 90 to 100 °C | Cc1nc(-c2ccc(-c3ccccc3S(=O)(=O)Nc3onc(C)c3C)cc2)co1
91 | 245 to 247 °C | Nc1c(-c2ccc(-c3ccc(F)cc3)c(F)c2)nc2ccc(F)cc2c1C(=O)O
92 | 99 to 101 °C | CC(=O)N1CCC(c2nn(-c3ccc(F)cc3)c3ccccc23)CC1
93 | 110 to 111 °C | CCOC(=O)COc1cc(O)c2c(c1Cl)OC1(CCCCC1)CC2=O
94 | 139 to 140 °C | CCOc1cnc2nc(SCc3ccccc3)nn2c1
95 | 208 to 210 °C | Cc1nc(-c2ccc(=O)n(C(C)C)n2)c(-c2ccccc2)nc1N
96 | 141 to 142 °C | CC(C)c1nn(-c2ccc(Cl)cn2)cc1CCCOc1ccccc1CC(=O)O
97 | 204 to 206 °C | Cn1c2ccccc2c2nc3cccc(CCl)c3nc21
98 | > 250 °C | CC(C)Cn1cnc2c(N)nc3ccc(-c4ccc(C(C)(C)C)cc4)cc3c21
99 | 153 to 155 °C | CN(C)c1ccc(C=Cc2ccc(S(=O)(=O)CCCCCCCCCCCO)cc2)cc1
100 | 114 to 116 °C | CC(C)(C)c1ccc(OCCOc2ccccc2[N+](=O)[O-])c([N+](=O)[O-])c1
101 | 185 to 187 °C | N#CC(C(=O)NC1CCCCC1)=C1Nc2ccccc2O1
